Drawing on ChEMBL document CHEMBL6120986, “In silico inspired design of urea noscapine congeners as anticancer agents: Chemical synthesis and experimental evaluation using breast cancer cells and a xenograft mouse model” (Eur J Med Chem, 2025), this text covers IC50 for eight compounds.

One data set deals with MCF7. The experiment in a line: Antiproliferative activity against human MCF7 cells assessed as inhibition of cell proliferation incubated for 72 hrs by SRB assay. The data set is classed as functional, cell-based. The settings on record: MCF7, 72 h. Background: The SRB assay estimates cell density from bound dye.
In a further data set the test system is MDA-MB-231. The experiment in a line: Antiproliferative activity against human MDA-MB-231 cells assessed as inhibition of cell proliferation incubated for 72 hrs by SRB assay. The settings on record: MDA-MB-231, 72 h. It counts as functional, cell-based.
A short description of data set [1]: Cytotoxicty against HEK cells incubated for 72 hrs by SRB assay. The data set is classed as toxicity, cell-based. The following applies: human.

One may read the IC50 as the point on the concentration scale where inhibition reaches its midpoint. In the case of `COc1cc(NC(=O)Nc2c3c(c(OC)c4c2OCO4)[C@H]([C@H]2OC(=O)c4c2ccc(OC)c4OC)N(C)CC3)cc(OC)c1OC`, the IC50 in the data set on MCF7 is 36.1 µM; in the data set with MDA-MB-231 it was 48.1 µM. In data set [1], the IC50 at 72 h came out at 294 µM.
Consider `COc1ccc(NC(=O)Nc2c3c(c(OC)c4c2OCO4)[C@H]([C@H]2OC(=O)c4c2ccc(OC)c4OC)N(C)CC3)c(OC)c1`, for which the IC50 in the data set with MCF7 was determined as 17.5 µM; in the data set on MDA-MB-231 it was 20.4 µM. For the same compound, half-maximal inhibition in data set [1] (IC50 at 72 h) required 306 µM.
As to `COc1ccc2c(c1OC)C(=O)O[C@@H]2[C@H]1c2c(c(NC(=O)Nc3cccc(F)c3)c3c(c2OC)OCO3)CCN1C`, the IC50 in the data set on MCF7 is 37.9 µM; in the data set with MDA-MB-231, 48.5 µM. In data set [1], half-maximal inhibition (IC50 at 72 h) required 292 µM.
Turning to `COc1ccc2c(c1OC)C(=O)O[C@@H]2[C@H]1c2c(cc3c(c2OC)OCO3)CCN1C` [NOSCAPINE], the figures for the IC50 in the data set with MCF7 and in the data set on MDA-MB-231 were 39.7 µM and 54 µM, respectively. Moreover, the IC50 at 72 h in data set [1] is 229 µM.
For the compound `COc1ccc2c(c1OC)C(=O)O[C@@H]2[C@H]1c2c(c(NC(=O)Nc3c(Cl)cc(Cl)cc3Cl)c3c(c2OC)OCO3)CCN1C`, the IC50 in the data set with MCF7 turned out to be 27.7 µM; in the data set on MDA-MB-231, 35.7 µM. Also, the IC50 at 72 h in data set [1] turned out to be 293 µM.
In the case of `COc1ccc2c(c1OC)C(=O)O[C@@H]2[C@H]1c2c(c(NC(=O)Nc3ccc(F)c(Cl)c3)c3c(c2OC)OCO3)CCN1C`, the IC50 in the data set on MCF7 amounted to 32.7 µM; with MDA-MB-231, 35.2 µM. Further, the IC50 at 72 h in data set [1] is 285 µM.
Turning to `COc1ccc2c(c1OC)C(=O)O[C@@H]2[C@H]1c2c(c(NC(=O)Nc3cccc(C(C)=O)c3)c3c(c2OC)OCO3)CCN1C`, the half-inhibitory concentration (IC50) in the data set on MCF7 was 29.5 µM; in the data set with MDA-MB-231, 33.2 µM. Moreover, the IC50 at 72 h in data set [1] was found to be 306 µM.
Take `CCc1ccc(NC(=O)Nc2c3c(c(OC)c4c2OCO4)[C@H]([C@H]2OC(=O)c4c2ccc(OC)c4OC)N(C)CC3)cc1`: the IC50 in the data set with MCF7 amounted to 38.2 µM; with MDA-MB-231, 45.7 µM. Moreover, the IC50 at 72 h in data set [1] came out at 290 µM.
